Measurements published in patent US20140142168A1, “METHODS AND PHARMACEUTICAL COMPOSITIONS FOR THE TREATMENT OF HORMONE-REFRACTORY PROSTATE CANCERS” (CENTRE JEAN PERRIN, priority 2011, published 2014).
Read-outs that look alike come from different tables or passages of the source.

Tests used:
[1] = Blood levels after administration; format: in vivo; conditions: human
Protocol: It was deduced from the investigator data that 1 h after administration of 75 mg/m2 of DTX, blood levels of DTX can reach 3.75 μM.

[2] = system: PC3 cells; assay: PC3 survival at end of treatment; format: cell-based, human; conditions: 2 h 3.75 μM DTX then 70 h drug-free medium, with or without 2 days of repeated 0.25 μM curcumin pretreatment
Protocol: The PC3 line is a human p-53 defective HRPC line displaying high SphK1 activity. To mimic the effect of treatment, 10,000 PC3 cells were seeded in each well of 24-well plates and maintained in DMEM containing 10% FBS (complete medium) overnight. […] Indeed, in these experiences PC3 cells were treated the first day for 2 h at 7 h AM and maintained in DFM until 12 h AM (5h). […] As previously, the cells were maintained in DFM for 70 h in DFM after DTX treatment.
PC3 survival was determined at the end of treatment 1 and 3. Telomerase activity was determined in survived cells by Trap assay at the end of treatment 1, 2 and 3.

[3] = system: patients with HRPC; conditions: docetaxel-treated patients, reference randomized study; cited from earlier work

| concentration at 1 h ([1]; in vivo) | concentration at 1 h ([1]; blood, intravenous, 1 h after administration of 75 mg/m2, deduced from the investigator data, read-out: blood levels of DTX) | Compound | number of survived cells [2] | PSA response [3] | objective tumor response [3] |
| --- | --- | --- | --- | --- | --- |
| 100 to 450 nM | – | COc1cc(/C=C/C(=O)CC(=O)/C=C/c2ccc(O)c(OC)c2)ccc1O [curcumin, (1E,6E)-1,7-bis (4-hydroxy-3-methoxyphenyl)-1,6-heptadiene-3 ,5-dione] | – | – | – |
| – | 3750 nM | CC(=O)O[C@@]12CO[C@@H]1C[C@H](O)[C@@]1(C)C(=O)[C@H](O)C3=C(C)[C@@H](OC(=O)[C@H](O)[C@@H](NC(=O)OC(C)(C)C)c4ccccc4)C[C@@](O)([C@@H](OC(=O)c4ccccc4)[C@H]21)C3(C)C [Docetaxel, (2R,3S)-N-carboxy-3-phenylisoserine, N-tert-butyl ester, 13-ester with 5, 20-epoxy-1,2,4,7, 10, 13-hexahydroxytax-11-en-9-one 4-acetate 2-benzoate, trihydrate] | 90±5% | 45% | 12% |
